Reference: the NIST ThermoML archive (doi:10.1021/je060271a)

Conditions: 323.14 K, Liquid, Vibrating tube method

CCCC(=O)OCC(COC(=O)CCC)(COC(=O)CCC)COC(=O)CCC [pentaerythritol tetrabutyrate]
Conditions | mass density [kg/m3]
17664 kPa | 1037.3
17706 kPa | 1037.2
17742 kPa | 1037.4
17779 kPa | 1037.3
17823 kPa | 1037.3
17860 kPa | 1037.3
17896 kPa | 1037.3
17933 kPa | 1037.5
17977 kPa | 1037.4
18014 kPa | 1037.5
18060 kPa | 1037.4
18099 kPa | 1037.5
18137 kPa | 1037.5
18184 kPa | 1037.6
18224 kPa | 1037.5
18264 kPa | 1037.7
18304 kPa | 1037.6
18346 kPa | 1037.8
18376 kPa | 1037.8
18470 kPa | 1037.7
18504 kPa | 1037.6
18534 kPa | 1037.7
18564 kPa | 1037.8
18600 kPa | 1037.9
18629 kPa | 1037.8
18660 kPa | 1037.9
18695 kPa | 1037.8
18793 kPa | 1037.9
18818 kPa | 1038
18855 kPa | 1038
18891 kPa | 1038
18922 kPa | 1037.9
18954 kPa | 1038
18986 kPa | 1038.2
19023 kPa | 1038
19055 kPa | 1038
19093 kPa | 1038.2
19125 kPa | 1038.1
19157 kPa | 1038.1
19219 kPa | 1038.2
19363 kPa | 1038.3
19716 kPa | 1038.6
19756 kPa | 1038.7
19790 kPa | 1038.6
19824 kPa | 1038.7
19866 kPa | 1038.6
19901 kPa | 1038.7
19935 kPa | 1038.8
20012 kPa | 1038.8
20274 kPa | 1038.9
20318 kPa | 1038.9
20356 kPa | 1038.9
20392 kPa | 1038.9
20429 kPa | 1039.1
20472 kPa | 1039.1
20510 kPa | 1039
20629 kPa | 1039.2
20667 kPa | 1039.1
20706 kPa | 1039.2
20751 kPa | 1039.2
20789 kPa | 1039.2
20828 kPa | 1039.3
20869 kPa | 1039.3
20908 kPa | 1039.4
20954 kPa | 1039.3
20992 kPa | 1039.4
21039 kPa | 1039.3
21079 kPa | 1039.4
21117 kPa | 1039.6
21156 kPa | 1039.4
21204 kPa | 1039.5
21243 kPa | 1039.5
21283 kPa | 1039.5
21333 kPa | 1039.5
21374 kPa | 1039.6
21416 kPa | 1039.6
21465 kPa | 1039.7
21508 kPa | 1039.7
21593 kPa | 1039.7
22639 kPa | 1040.4
22677 kPa | 1040.4
22723 kPa | 1040.4
22761 kPa | 1040.5
22807 kPa | 1040.5
22845 kPa | 1040.5
22884 kPa | 1040.5
22932 kPa | 1040.5
22972 kPa | 1040.6
23010 kPa | 1040.7
23051 kPa | 1040.6
23098 kPa | 1040.7
23137 kPa | 1040.7
23185 kPa | 1040.7
23224 kPa | 1040.8
23265 kPa | 1040.8
23314 kPa | 1040.8
23354 kPa | 1040.9
23396 kPa | 1040.8
23445 kPa | 1040.8
23487 kPa | 1041
23528 kPa | 1040.9
23578 kPa | 1041
23620 kPa | 1041
23662 kPa | 1041.1
23705 kPa | 1041
23756 kPa | 1041.1
23800 kPa | 1041.1
24059 kPa | 1041.3
24170 kPa | 1041.4
24213 kPa | 1041.4
24248 kPa | 1041.5
24441 kPa | 1041.6
24478 kPa | 1041.6
24516 kPa | 1041.6
24554 kPa | 1041.6
24598 kPa | 1041.7
24634 kPa | 1041.6
24671 kPa | 1041.6
24708 kPa | 1041.8
24752 kPa | 1041.8
24955 kPa | 1041.8
24993 kPa | 1041.9
25031 kPa | 1041.9
25070 kPa | 1041.9
25108 kPa | 1041.9
25155 kPa | 1042.1
25193 kPa | 1042
25232 kPa | 1042
25278 kPa | 1042
25825 kPa | 1042.4
25865 kPa | 1042.5
25913 kPa | 1042.5
25954 kPa | 1042.5
25996 kPa | 1042.5
26045 kPa | 1042.6
26086 kPa | 1042.6
26129 kPa | 1042.6
26170 kPa | 1042.7
26220 kPa | 1042.7
26262 kPa | 1042.7
26305 kPa | 1042.7
26355 kPa | 1042.7
26397 kPa | 1042.8
26448 kPa | 1042.8
26490 kPa | 1042.8
26533 kPa | 1042.9
